From US9492450B2, “Inhibition of dynamin related protein 1 to promote cell death” (University of Pittsburgh—of the Commonwealth System of …, priority 2011, dated 2016)

Experiments:
Assay type in all cases: cell-based, human
[1] = test system: MDA-MB-231 cells; test: Western blot of DNA damage response proteins; details: 4 h; mdivi-1 alone at 50 μM
Procedure: (§1) FIG. 22A-E. Mdivi-1 inhibits DNA replication and its combination with cisplatin enhances replication stress leading to efficient G2 phase arrest of the cell cycle. (A) MDA-MB-231 cells were treated with cisplatin alone, mdivi-1 alone or the combination at the indicated concentrations for 4 h. Western blot was then performed to detect the phosphorylation status of key proteins involved in DNA damage response. (B) MDA-MB-231 cells were treated with 20 μM cisplatin alone, 20 μM mdivi-1 alone or the combination for 20 h. The distribution of cell cycle was determined by triple staining of the cells with anti-BrdU, anti-phospho-Histone H3 and PI. (C) Quantification of the distribution of cell cycle analyzed in panel B. (D) The effect of mdivi-1 on the rate of DNA synthesis was analyzed by a histogram, which was generated from the data obtained in panel B, showing the changes of BrdU intensity. (E) Cells were treated as described in B and γ-H2AX was analyzed by western blot.
Whole cell lysate was prepared by lysing cells in cell lysis buffer (Cell signaling technology) containing complete protease inhibitor (Roche). Cell lysates were then cleared at 15,000 rpm for 15 min at 4° C. […] The protein content was quantified using a Bio-Rad Protein Assay kit (Bio-Rad Laboratories, Hercules, Calif.). […]

[2] = test system: MDA-MB-231 cells; test: CyQUANT cell number after 2 h exposure and wash-out; details: 50 μM, 2 h exposure then wash-out
Procedure: (§2) FIG. 19A-E. Combination of cisplatin and mdivi-1 produces synergistic pro-apoptotic effect in multidrug resistant tumor cells. (A) MDA-MB-231 cells were treated with increasing doses of mdivi-1 for 72 h. The survival was assessed by MTS assay. […] (B) MDA-MB-231 cells were treated with increasing doses of cisplatin alone or the combination with 20 μM or 50 μM of mdivi-1 for 72 h. The survival was assessed by MTS assay. (C) MDA-MB-231 cells were exposed to cisplatin and mdivi-1 alone or combination at their IC50 or 0.5 fold of their IC50. The combination index (CI) and the normalized isobologram were generated using CompuSyn. (D) MDA-MB-231 cells were treated with DMSO, 50 μM cisplatin alone, 50 μM mdivi-1 alone, or the combination for 2 h. The compounds were then washed out and the cell number was determined every 24 h by CyQuant assay. (E) MDA-MB-231 cells were treated with agents alone, or the combination at a ratio of 1:1 for 20 h. The number of apoptotic cells was determined with antibody recognizing cleaved caspase-3 followed by flow cytometry.
To explore this effect further, MDA-MB-231 cells were treated with DMSO as a vehicle control, 50 μM of cisplatin, 50 μM of mdivi-1, or 50 μM of cisplatin plus 50 μM of mdivi-1 for 2 hours. The cells were then washed with growth media and plated in black 96-well plates. Survivals were measured by CyQUANT assay. Data represent mean±SD. n=4 wells. […]

[3] = test system: MDA-MB-231 cells; test: MTS colorimetric survival assay; details: agent alone, 72 h, read-out: IC50, inhibition of growth / survival
Procedure: as §2, with “(D) MDA-MB-231 cells were treated with DMSO, 50 μM cisplatin alone, 50 μM mdivi-1 alone, or the combination for 2 h.” left out, “(E) MDA-MB-231 cells were treated with agents alone, or the combination at a ratio of 1:1 for 20 h.” left out
Cell proliferation was determined using a CyQUANT Direct Cell Proliferation Assay kit (Invitrogen), the activity of caspase-3/7 was measured using a Caspase-Glo 3/7 Assay Systems (Promega, Madison, Wis.), and the MTS colorimetric survival assay was performed using the CellTiter 96 AQueous One Solution Cell Proliferation Assay kit (Promega, Madison, Wis.), according to the manufacturer's instructions. The survival fractions were calculated after setting untreated control cells at 100%. […]

[4] = test system: MDA-MB-231 cells; test: Cell cycle analysis by anti-BrdU, anti-phospho-Histone H3 and PI staining; details: 20 μM, 20 h
Procedure: as §1
Cells were treated with 20 μM cisplatin, 20 μM mdivi-1, or the combination of 20 μM cisplatin and 20 μM mdivi-1 for 20 h. S phase cells were then pulse-labeled with 10 μM BrdU for 30 min at 37° C. Cells were trypsinized, fixed in 70% ice-cold ethanol, and incubated overnight at 4° C. DNA was denatured in 2 N HCl containing 0.5% Triton X-100, and neutralized with 0.1 M Na2B4O7. Cells were then stained with FITC-labeled anti-BrdU antibody (BD Biosciences, San Jose, Calif.). To determine the number of cells in mitosis, cells were then stained with Alexa Fluor 647-conjugated phospho-Histone H3 (Ser 10) antibody (Cell signaling technology). To measure DNA content, cells were incubated in PI solution (PBS containing 50 μg/ml of PI and 40 μg/ml of RNase A) for 30 min at room temperature. Samples were analyzed on a CyAn ADP Analyzer (Beckman Coulter, Brea, Calif.). Data were analyzed using Summit software.

SMILES | phosphorylation / activation of Chk1 [1] | effect on cell growth / survival after short exposure [2] | IC50 [3] | BrdU incorporation into DNA [4] | S phase cells [4] | G2 phase cells [4]
COc1cc(-n2c(=S)[nH]c3ccccc3c2=O)c(Cl)cc1Cl [mdivi-1] | induced activation of Chk1 | reversible | 55.9 ± 1.92 µM | substantially decreased | 44.23% | –
N.N.[Cl][Pt][Cl] [cisplatin] | phosphorylated | only slightly slowed down cell growth | – | abolished the uptake of BrdU | – | 18.97%
